Laboratory results reported in ChEMBL document CHEMBL1140968, “QSAR, action mechanism and molecular design of flavone and isoflavone derivatives with cytotoxicity against HeLa” (2008).

What follows are molecules tested on HeLa (assay: Cytotoxicity against human HeLa cells).
Format: functional

Row | SMILES | GC50 | pGC50
1 | C/C(COc1c(-c2ccccc2)oc2ccccc2c1=O)=N\O | 2000 nM | 5.699
2 | COc1ccc(/C(COc2ccc3c(=O)cc(-c4ccccc4)oc3c2)=N\O)cc1 | 2000 nM | 5.699
3 | CO/N=C(\C)COc1c(-c2ccccc2)oc2ccccc2c1=O | 2000 nM | 5.699
4 | CO/N=C(\C)COc1ccc2c(=O)cc(-c3ccccc3)oc2c1 | 2200 nM | 5.658
5 | O=c1cc(-c2ccccc2)oc2cc(OC/C(=N/O)c3ccc(F)cc3)ccc12 | 2000 nM | 5.699
6 | CO/N=C(/COc1ccc2c(=O)c(-c3ccccc3)coc2c1)c1ccc(OC)cc1 | 7300 nM | 5.137
7 | O=c1cc(-c2ccccc2)oc2ccc(OC/C(=N/O)c3ccc(F)cc3)cc12 | 1600 nM | 5.796
8 | O=c1cc(-c2ccccc2)oc2cc(OC/C(=N/O)c3ccccc3)ccc12 | 2000 nM | 5.699
9 | C/C(COc1ccc2c(=O)c(-c3ccccc3)coc2c1)=N\O | 9800 nM | 5.009
10 | COc1ccc(/C(COc2ccc3c(=O)c(-c4ccccc4)coc3c2)=N\O)cc1 | 7600 nM | 5.119
11 | CO/N=C(\C)COc1ccc2c(=O)c(-c3ccccc3)coc2c1 | 8500 nM | 5.071
12 | COc1ccc(/C(COc2ccc3oc(-c4ccccc4)cc(=O)c3c2)=N\O)cc1 | 1000 nM | 6
13 | CO/N=C(/COc1ccc2c(=O)cc(-c3ccccc3)oc2c1)c1ccc(OC)cc1 | 2500 nM | 5.602
14 | CO/N=C(/COc1ccc2oc(-c3ccccc3)cc(=O)c2c1)c1ccc(OC)cc1 | 2000 nM | 5.699
15 | O=c1c(-c2ccccc2)coc2cc(OC/C(=N/O)c3ccccc3)ccc12 | 9000 nM | 5.046
16 | CO/N=C(/COc1ccc2oc(-c3ccccc3)cc(=O)c2c1)c1ccc(F)cc1 | 2300 nM | 5.638

Row | SMILES | GC50 | pGC50
17 | CO/N=C(/COc1c(-c2ccccc2)oc2ccccc2c1=O)c1ccccc1 | 1600 nM | 5.796
18 | CO/N=C(/COc1ccc2oc(-c3ccccc3)cc(=O)c2c1)c1ccccc1 | 2400 nM | 5.62
19 | CO/N=C(/COc1c(-c2ccccc2)oc2ccccc2c1=O)c1ccc(OC)cc1 | 2000 nM | 5.699
20 | O=c1c(OC/C(=N/O)c2ccc(F)cc2)c(-c2ccccc2)oc2ccccc12 | 2100 nM | 5.678
21 | O=c1c(-c2ccccc2)coc2cc(OC/C(=N/O)c3ccc(F)cc3)ccc12 | 7800 nM | 5.108
22 | COc1ccc(/C(COc2c(-c3ccccc3)oc3ccccc3c2=O)=N\O)cc1 | 2000 nM | 5.699
23 | CO/N=C(\C)COc1ccc2oc(-c3ccccc3)cc(=O)c2c1 | 900 nM | 6.046
24 | C/C(COc1ccc2c(=O)cc(-c3ccccc3)oc2c1)=N\O | 2000 nM | 5.699
25 | C/C(COc1ccc2oc(-c3ccccc3)cc(=O)c2c1)=N\O | 1200 nM | 5.921
26 | CO/N=C(/COc1ccc2c(=O)c(-c3ccccc3)coc2c1)c1ccc(F)cc1 | 6400 nM | 5.194
27 | CO/N=C(/COc1ccc2c(=O)c(-c3ccccc3)coc2c1)c1ccccc1 | 8200 nM | 5.086
28 | CO/N=C(/COc1c(-c2ccccc2)oc2ccccc2c1=O)c1ccc(F)cc1 | 2000 nM | 5.699
29 | CO/N=C(/COc1ccc2c(=O)cc(-c3ccccc3)oc2c1)c1ccc(F)cc1 | 2700 nM | 5.569
30 | O=c1c(OC/C(=N/O)c2ccccc2)c(-c2ccccc2)oc2ccccc12 | 1800 nM | 5.745
31 | CO/N=C(/COc1ccc2c(=O)cc(-c3ccccc3)oc2c1)c1ccccc1 | 6600 nM | 5.18
32 | O=c1cc(-c2ccccc2)oc2ccc(OC/C(=N/O)c3ccccc3)cc12 | 800 nM | 6.097
